The record followed here is patent US10258595B2, “Pharmaceutical formulation for histone deacetylase inhibitors” (TetraLogic Shape UK Ltd, priority 2010, dated 2019).

How the values of data set [1] were obtained:
The method has historic precedent for accurately predicting in vivo percutaneous absorption kinetics.
To assure the integrity of each skin section, its permeability to tritiated water was determined before application of the test products.

Data set [2] is described as follows: Saturation solubility of compound (II) in the gel formulation. Type of data set: physicochemical. Particulars: acidified nonaqueous gel, refrigerated storage (2-8° C.).
A short description of data set [3]: Degradation of compound (II) in neutral ethanol. Type of data set: physicochemical. The following applies: room temperature, 24 hours.
The nature of data set [4]: Exposure of gels to laboratory light. Type of data set: physicochemical. The following applies: exposure to laboratory light for up to five days.
Where [5] appears, read: skin dosed with compound (II) formulations.

Read-outs that look alike come from different tables or passages of the source.

Take `O=C(O)c1ccc(O)cc1` [4-OH Benzoic acid]: in data set [1] (setting [5]), the “presence of degradation products in the samples” value (“presence of degradation products” below) is given as “present in the majority of the samples”.
As to `COC(=O)c1ccc(OC(=O)CCCCCCC(=O)NO)cc1` [Compound (II)], in data set [2], the “formulation's saturation solubility for compound (II)” value is “approximately 1.6 % w/w”. The “degradation of compound (II)” value in data set [3] is recorded as “approximately 50%”. In addition, in data set [1] (human, 24 h, pH 6), the “detectable compound (II) found in the epidermis” value is listed as 0.3-0.9% and the “detectable compound (II) found in the surface wash” value is 20-69%. The “effect of light on assay values for compound (II)” value in data set [4] was “did not significantly affect”.
As for `O=C(O)CCCCCCC(=O)NO` [Compound (III)], the “presence of degradation products” value in data set [1] is “present in the majority of the samples”.
Regarding `COC(=O)c1ccc(O)cc1` [Methylparaben], the “presence of degradation products” value in data set [1] (setting [5]) is listed as “present in the majority of the samples”.
